# Patent US4529587A, “Method of reducing sebum on the hair and skin” (Lever Brothers Company, priority 1982, dated 1985)
# Values joined by “and” are separate entries in the source; they are usually repeats but may differ in a detail not shown here. Equal entries are not always repeated.
# Key:
# acetyl-SCoA-carboxylase = acetyl-SCoA-carboxylase activity in cultured human dermal fibroblasts (fixation of ^14 C-sodium bicarbonate into protein); assay type: cell-based
# Protocol: In preliminary experiments the ability of biotin sulphone to reduce the activity of acetyl-SCoa-carboxylase in an in vitro assay was assessed using cultured human dermal fibroblasts as described in Ghneim et al (1981) Biochem. Soc. Trans. 9, 405-6 and references therein. Human dermal fibroblasts were maintained in culture for 3 days with 1 μM biotin sulphone in the presence of a nutrient medium containing 10% foetal calf serum. The level of naturally occurring biotin was about 10 nM. Enzyme activity was assayed in the cell pellet by the fixation of ^14 C-sodium bicarbonate into protein in the presence of acety-CoA under appropriate conditions. Control experiments were done in the absence of biotin sulphone and enzyme activities were calculated with respect to protein.
# [1] = tested on: ^14 C-acetate uptake into dermal lipids; experiment: in vivo topical treatment of rats, ^14 C-acetate uptake into dermal lipids; parameters: species or system rat
# Protocol: (§1) Ten, 3 week male weanling rats, clipped on left and right flanks, were divided into two groups of five animals. One group was untreated on the left flank while the right flank received the test solution (1 mg/ml biotin sulphone in 70% ethanol:30% water) twice a day (once per day at weekends) for six weeks. The second group received the ethanol/water carrier on the left flank and the test solution on the right. At the end of the treatment the rats were killed, skin removed and divided approximately into epidermis and dermis using a 0.2 mm keratatome cut. Samples of dermis containing most of the sebaceous tissue from either untreated (UN), vehicle (V) or test (T) treated skin were incubated in a nutrient medium (basal eagles medium +10% foetal calf seru, 20 mM hepes pH 7.4, antibiotics, 100 μM sodium acetate containing 1 μCi/ml sodium (1-^14 C) acetate for 19 hours at 37° C. The ^14 C-acetate is metabolically incorporated into lipids and gives a "snap shot" of the lipid synthesis profile over the 19 hour time period. At the end of the incubation samples were washed in ice cold medium without ^14 C-acetate, quenched in ice cold 5% trichloroacetic acid (TCA), homogenised and centrifuged to separate insoluble residue from TCA soluble material ("TCA" fraction). The TCA fraction contains nucleo dtides, small metabolites especially succinate, amino acids, small peptides and free ^14 C-acetate. Lipids were extracted in chloroform:methanol and subject to Folch washing essentially as described by Prottey el al., Brit. J. Dermatol. (1972) 87, 586-607 generating the following fractions : "lipids", "aqueous methanol" containing only a small proportion of skin lipids with a very low ^14 C count and an extracted "solid residue". The total ^14 C count in all these fractions was determined.
# The following ratio provides a measure of lipid synthesis per unit volume of skin, that is the total ^14 C-acetate uptake into lipids (i.e. amount of lipid synthesis) divided by the ^14 C-acetate uptake into the remaining tissue fractions (i.e. a measure of sample size). (Remaining tissue="TCA" fraction+"solid residue").
# [2] = tested on: FFA and "Triglyceride" lipid synthesis; experiment: in vivo topical treatment of rats, ^14 C-acetate incorporation into FFA and "triglyceride" lipid (thin layer chromatography fractions); parameters: species or system rat
# Protocol: as §1
# The radioactive lipids were fractionated into free fatty acids (FFA) monoglycerides (MG), diglycerides (trace only) and triglyerides (TG) using a standard, neutral solvent, thin layer chromatography system.
# However ^14 C-acetate is also incorporated into the cholesterol synthetic pathway which should be largely unaffected by the biotin sulphone treatment. This will cause a "dilution" of the reduction seen above. Accordingly, the lipids whose synthesis is dependent on acetyl-SCoA-carboxylase have been isolated. These are free fatty acids (FFA), monoglyceride (MG), diglyeride (trace) triglyceride (TG). It is predicted that a greater reduction in the incorporation of ^14 C-acetate into "triglyceride" lipid should now be observed. As fatty acids are the primary product made by the acetyl-SCoA-carboxylase pathway in the sebaceous gland, results for this lipid class have been included separately, as well as for total "triglyceride" lipid; values of six of the rats are given in Table 3 below: […]
# [3] = biotin sulphone treatment, rats
# [4] = individual rats, 1 = 41,151 DPM ^14 C-acetate incorporated into lipid, corrected for sample size, topical 1 mg/ml, six weeks
smiles,measurement,setting,value
O=C(O)CCCC[C@H]1[C@H]2NC(=O)N[C@H]2CS1(=O)=O [biotin sulphone],nCi ^14 C-bicarbonate fixed per mg protein,"acetyl-SCoA-carboxylase; 1 μM biotin sulphone, 3 days, 10% foetal calf serum, control 4.46",3.26 nCi per mg protein
same,Acetyl-SCoA-carboxylase activity (%),"acetyl-SCoA-carboxylase; 1 μM biotin sulphone, 3 days, control = 100",73%
same,reduction in acetyl-SCoA-carboxylase activity,"acetyl-SCoA-carboxylase; culture in the presence of 1 μM biotin sulphone, vs control, 4320 min",27%
same,Av. Test ratio: ^14 C-acetate uptake into lipids divided by uptake into remaining tissue,"[1]; average of ten rats, control (UN or V) Av. 0.59",0.49
same,change of Av. Test ratio vs control,"[1]; average, Test vs UN or V",-18%
same,Test ratio: ^14 C-acetate uptake into lipids divided by uptake into remaining tissue (TCA fraction + solid residue),"[1]; individual rats A-J, 1 mg/ml in 70% ethanol:30% water, topical, twice a day, six weeks, dermis incubated 19 hours at 37° C.",0.43 and 0.23 and 0.59 and 0.44 and 0.52 and 0.53 and 0.58 and 0.39 and 0.73
same,overall reduction in ^14 C-acetate uptake into dermal lipids,"[1]; topical application, ten rats",18%
same,"FFA synthesis, Test, Av.","[2]; average of six rats, 1 = 41,151 DPM ^14 C-acetate, control Av. 1.50",0.91
same,"""Triglyceride"" lipid synthesis (sum of FFA + MG + TG), Test, Av.","[2]; average of six rats, 1 = 41,151 DPM ^14 C-acetate, control Av. 18.24",12.94
same,"change of ""Triglyceride"" lipid synthesis vs control","[2]; average, Test vs V + UN",-29%
same,change of FFA synthesis vs control,"[2]; average, Test vs V + UN",-39%
same,"reduction of ""Triglyceride"" (FFA+MG+TG) synthesis",[2]; [3],29%
same,reduction of denovo FFA synthesis,[2]; [3],39%
same,"""Triglyceride"" lipid synthesis (sum of FFA + MG + TG), Test",[2]; [4],13.93 and 8.58 and 15.17 and 15.38 and 14.74 and 9.85
same,"FFA synthesis, Test",[2]; [4],0.78 and 0.41 and 0.60 and 1.67 and 1.22
